ChEMBL document CHEMBL6127008, “Discovery and biological evaluation of biaryl acetamide derivatives as selective and in vivo active sphingosine kinase-2 inhibitors” (Eur J Med Chem, 2024)
Values after ≈ are worked out from the molar mass of the structure shown. Active and inactive are the calls of the source. The rule behind the calls is not given here.

How the values were obtained:
[1] = Cytotoxicity against mouse NIH3T3 cells assessed as reduction in cell proliferation incubated for 48 hrs by CCK-8 assay; format: toxicity, cell-based
[2] = system: MC-38; test: cells; conditions: Mus musculus, MC-38, 48 h
[3] = system: MCF7; test: cells; conditions: Homo sapiens, MCF7, 48 h
[4] = system: HepG2; test: cells; conditions: Homo sapiens, HepG2, 48 h
[5] = system: Hepa 1-6; test: cells; conditions: Mus musculus, Hepa1-6, 48 h
[6] = system: HepG2; test: Upregulation od SPH level in human HepG2 cell incubated for 48 hrs by SPH competitive ELISA method; format: functional, cell-based; conditions: dose 0-60 µM
[7] = Aqueous solubility of compound in phosphate buffer at pH 7.4 by HPLC analysis; format: physicochemical
[8] = Aqueous solubility of compound in phosphate buffer at pH 9.0 by HPLC analysis; format: physicochemical
[9] = Aqueous solubility of compound in phosphate buffer at pH 2.0 by HPLC analysis; format: physicochemical
[10] = system: HepG2; test: Downregulation of SIP level in human HepG2 cells incubated for 48 hrs by SIP competitive ELISA method; format: functional, cell-based; conditions: dose 0-60 µM
[11] = system: HepG2; test: Induction of cell cycle arrest in human HepG2 cells assessed as accumulation of cell at G2 phase at 0 to 50 uM incubated for 48 hrs by PI staining based flow cytometric analysis; format: functional; conditions: dose 0-50 µM
[12] = system: HepG2; test: Induction of apoptosis in human HepG2 cells assessed as viable cells at 5 uM incubated for 48 hrs by Annexin V/FITC-PI staining based flow cytometry (reference value: 91.15%); format: functional; conditions: read-out: Activity
[13] = system: HepG2; test: Induction of apoptosis in human HepG2 cells assessed as necrotic cells at 20 uM incubated for 48 hrs by Annexin V/FITC-PI staining based flow cytometry (reference value: […]); format: functional
[14] = system: HepG2; test: Induction of apoptosis in human HepG2 cells assessed as necrotic cells at 5 uM incubated for 48 hrs by Annexin V/FITC-PI staining based flow cytometry (reference value: […]); format: functional
[15] = system: HepG2; test: Induction of apoptosis in human HepG2 cells assessed as viable cells at 50 uM incubated for 48 hrs by Annexin V/FITC-PI staining based flow cytometry (reference value: 91.15%); format: functional; conditions: read-out: Activity
[16] = system: HepG2; test: Induction of apoptosis in human HepG2 cells assessed as late apoptotic cells at 50 uM incubated for 48 hrs by Annexin V/FITC-PI staining based flow cytometry (reference value: 3.32%); format: functional
[17] = system: HepG2; test: Induction of apoptosis in human HepG2 cells assessed as necrotic cells at 50 uM incubated for 48 hrs by Annexin V/FITC-PI staining based flow cytometry (reference value: […]); format: functional
[18] = system: HepG2; test: Induction of apoptosis in human HepG2 cells assessed as early apoptotic cells at 50 uM incubated for 48 hrs by Annexin V/FITC-PI staining based flow cytometry (reference value: 1.98%); format: functional
[19] = system: HepG2; test: Inhibition of cell migration in human HepG2 cells assessed as scratch healing incubated for 24 to 48 hrs by wound healing assay; format: functional, cell-based; conditions: dose 10-30 µM, time lower 24.0 hrs, time upper […]
[20] = system: HepG2; test: Induction of apoptosis in human HepG2 cells assessed as viable cells at 20 uM incubated for 48 hrs by Annexin V/FITC-PI staining based flow cytometry (reference value: 91.15%); format: functional; conditions: read-out: Activity
[21] = system: HepG2; test: Induction of apoptosis in human HepG2 cells assessed as late apoptotic cells at 5 uM incubated for 48 hrs by Annexin V/FITC-PI staining based flow cytometry (reference value: 3.32%); format: functional
[22] = system: HepG2; test: Induction of apoptosis in human HepG2 cells assessed as early apoptotic cells at 20 uM incubated for 48 hrs by Annexin V/FITC-PI staining based flow cytometry (reference value: 1.98%); format: functional
[23] = system: Mus musculus; test: In vivo inhibition SphK2 in female C57BL/6j mouse assessed as decrease in plasma SIP level at 10 to 30 mg/kg, ip measured after 4 hrs by SIP competitive ELISA method; format: functional, organism-based; conditions: dose 10-30 mg/kg
[24] = system: HepG2; test: Induction of apoptosis in human HepG2 cells assessed as late apoptotic cells at 20 uM incubated for 48 hrs by Annexin V/FITC-PI staining based flow cytometry (reference value: 3.32%); format: functional
[25] = system: HepG2; test: Induction of apoptosis in human HepG2 cells assessed as early apoptotic cells at 5 uM incubated for 48 hrs by Annexin V/FITC-PI staining based flow cytometry (reference value: 1.98%); format: functional
[26] = target: T1, Sphingosine kinase 2 (Homo sapiens, UniProt Q9NRA0); test: Inhibition of SphK2 (unknown origin) using sphingosine as substrate incubated for 30 mins in presence of ATP by ADP-Glo assay
T1 sequence (Q9NRA0 whole entry): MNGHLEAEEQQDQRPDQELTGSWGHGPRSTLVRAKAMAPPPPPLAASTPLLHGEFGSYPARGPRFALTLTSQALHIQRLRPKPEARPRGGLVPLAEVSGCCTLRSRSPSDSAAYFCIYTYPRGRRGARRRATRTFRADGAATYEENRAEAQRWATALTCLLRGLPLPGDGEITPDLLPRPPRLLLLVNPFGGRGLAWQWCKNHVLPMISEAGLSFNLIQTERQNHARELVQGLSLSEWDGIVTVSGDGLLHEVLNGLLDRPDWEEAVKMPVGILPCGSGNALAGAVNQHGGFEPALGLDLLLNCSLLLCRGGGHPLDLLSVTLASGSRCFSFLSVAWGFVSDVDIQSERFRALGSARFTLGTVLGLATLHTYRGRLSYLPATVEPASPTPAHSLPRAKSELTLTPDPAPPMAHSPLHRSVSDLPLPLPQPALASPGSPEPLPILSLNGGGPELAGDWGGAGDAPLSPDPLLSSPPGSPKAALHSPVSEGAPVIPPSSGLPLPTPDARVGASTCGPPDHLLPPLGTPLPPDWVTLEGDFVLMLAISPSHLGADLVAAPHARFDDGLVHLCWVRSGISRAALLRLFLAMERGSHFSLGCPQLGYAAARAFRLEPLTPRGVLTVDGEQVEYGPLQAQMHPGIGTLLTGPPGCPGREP

[27] = target: T1, Sphingosine kinase 2; test: Inhibition of SphK2 (unknown origin)
[28] = target: Sphingosine kinase 1 (Homo sapiens, UniProt Q9NYA1); test: Inhibition of SphK1 (unknown origin)
Sphingosine kinase 1, sequence (Q9NYA1 whole entry): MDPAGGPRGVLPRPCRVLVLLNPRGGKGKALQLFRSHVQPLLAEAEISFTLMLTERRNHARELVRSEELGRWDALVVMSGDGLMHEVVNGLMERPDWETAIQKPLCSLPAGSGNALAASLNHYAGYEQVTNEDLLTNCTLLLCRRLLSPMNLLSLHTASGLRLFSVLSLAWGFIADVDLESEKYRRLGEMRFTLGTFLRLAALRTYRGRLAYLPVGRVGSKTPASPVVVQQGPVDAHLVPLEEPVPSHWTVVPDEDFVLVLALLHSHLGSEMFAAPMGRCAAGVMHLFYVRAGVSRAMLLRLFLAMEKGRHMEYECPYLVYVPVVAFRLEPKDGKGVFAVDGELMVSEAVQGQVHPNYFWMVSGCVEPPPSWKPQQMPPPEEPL

SMILES | IC50 [2] [µM] | IC50 [3] [µM] | IC50 [4] [µM] | IC50 [5] [µM] | IC50 at 48 h [1] [µM] | further results
NC(=O)[C@@H]1CCCN1C(=O)Cc1ccc(-c2ccc(OCc3ccc(Cl)cc3)nc2)cc1 | 40.5 | 25.4 | 34.4 | 27.2 | > 100 | –
O=C(Cc1ccc(-c2cnc(OCc3ccc(C(F)(F)F)cc3)cn2)cc1)N1CCC[C@H]1CO | 36.3 | 32.1 | 17.6 | 26.2 | > 100 | Activity [6]: Dose-Dependent Effect; solubility [7]: 164 µM (≈ 77.5 µg/mL); solubility [8]: 60.4 µM (≈ 28.5 µg/mL); solubility [9]: 38.6 µM (≈ 18.2 µg/mL); Activity [10]: Dose-Dependent Effect
O=C(Cc1ccc(-c2ccc(OCc3ccc(Cl)c(Cl)c3)nc2)cc1)N1CCC[C@H]1CO | 20.9 | 14.7 | 25.4 | 46.1 | > 100 | Activity [11]: Active; viability at 5 µM [12]: 85.7%; Activity [6]: Dose-Dependent Effect; Activity [13]: 4.62%; Activity [14]: 6.77%; viability at 50 µM [15]: 67.6%; Activity [16]: 10.09%; solubility [7]: 197 µM (≈ 92.6 µg/mL); Activity [17]: 11.19%; Activity [18]: 11.1%; Activity [19]: Dose-Dependent Effect; viability at 20 µM [20]: 82.9%; solubility [8]: 46.9 µM (≈ 22.1 µg/mL); solubility [9]: 6.87 µM (≈ 3.24 µg/mL); Activity [21]: 6.61%; Activity [10]: Dose-Dependent Effect; Activity [22]: 1.46%; Activity [23]: Active; Activity [24]: 11.01%; Activity [25]: 0.93%
CCCCCOc1ccc2cc(-c3noc([C@@H]4[C@@H](O)CCN4C(=N)N)n3)ccc2c1 | – | – | – | – | – | IC50 [26]: 1.5 µM
O=C(Cc1ccc(-c2ccc(OCc3ccc(Cl)c(Cl)c3)nc2)cc1)N1CCC(O)CC1 | 16.4 | 36.3 | > 100 | 59.2 | > 100 | solubility [7]: 183 µM (≈ 86.5 µg/mL); solubility [8]: 59.6 µM (≈ 28.1 µg/mL); solubility [9]: 11.6 µM (≈ 5.48 µg/mL)
CS(=O)(=O)c1ccc(-c2sc(NS(=O)(=O)c3ccc(Br)cc3)nc2-c2ccccc2)cc1 | – | – | – | – | – | IC50 [27]: > 10 µM
O=C(Cc1ccc(-c2cnc(OCc3ccc(Cl)cc3)cn2)cc1)N1CCC[C@H]1CO | > 100 | > 100 | 46.4 | 57.4 | > 100 | –
O=C(NCc1ccncc1)C12CC3CC(C1)CC(c1ccc(Cl)cc1)(C3)C2 [ABC-294640] | 34.6 | 33.5 | 25.6 | 41.9 | > 100 | IC50 [26]: 11.4 µM
CCCCCCCCc1ccc(CC[C@](N)(CO)COC)cc1 | – | – | – | – | – | Ki [28]: 50 µM

More lines, main results first:

IC50 [2] [µM] | IC50 [3] [µM] | IC50 [4] [µM] | IC50 [5] [µM] | SMILES | IC50 at 48 h [1] [µM] | further results
> 100 | > 100 | > 100 | 66.3 | NC(=O)[C@@H]1CCCN1C(=O)Cc1ccc(-c2ccc(OCc3ccccc3)nc2)cc1 | > 100 | –
57.4 | 53.4 | 27.2 | 49.1 | O=C(Cc1ccc(-c2ccc(OCc3ccc(Cl)cc3)nc2)cc1)N1CCC[C@H]1CO | > 100 | –
> 100 | 32.7 | 67.9 | 37.5 | NC(=O)[C@@H]1CCCN1C(=O)Cc1ccc(-c2ccc(OCc3ccc(Cl)c(Cl)c3)nc2)cc1 | > 100 | –
